Reference: patent publication US20080234233A1, “MEDICAMENT FOR TREATMENT OF NEURODEGENERATIVE DISEASES” (INSTITUTE OF MEDICINAL MOLECULAR DESIGN INC., priority 2002, published 2008)

Test system: NF-κ B activation
Experiment: Inhibitory activity of NF-κB activation, luciferase reporter assay under TNF-α stimulation in HepG2
Type: cell-based, human
Conditions: HepG2, TNF-α 40 ng/ml, 4 hours; for inhibition at 1 µg/mL / inhibition at 10 µg/mL: Homo sapiens, read-out: Inhibitory rate against NF-κB activation (%)
How it was run: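 HepG2 cells transiently transfected with luciferase reporter carrying five tandem NF-κB binding sites, then stimulated with TNF-α (40 ng/ml) ± compound for 4 hours. Luminescent luciferase activity measured; inhibition expressed relative to activity without compound.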

Inhibitory rate against NF-κB activation (%) (Drug concentration at 1 μg/mL)	Inhibitory rate against NF-κB activation (%) (Drug concentration at 10 μg/mL)	SMILES	inhibition at 1 µg/mL (Drug concentration at 1 μg/mL) [%]	inhibition at 10 µg/mL (Drug concentration at 10 μg/mL) [%]
		COc1ccc(C(C)(C)C)cc1NC(=O)c1cc(Cl)ccc1O [compound 135, 5-chloro-N-{5-[(1,1-dimethyl)ethyl]-2-methoxyphenyl}-2-hydroxybenzamide]	86.2	99.2
81.5	94.3	O=C(Nc1cc(C(F)(F)F)cc(C(F)(F)F)c1)c1cc(F)ccc1O [compound 3]		
93.9	96.3	N#Cc1ccc(Oc2ccc(C(F)(F)F)cc2NC(=O)c2cc(Cl)ccc2O)cc1 [compound 252]		
92.3	98.3	O=C(Nc1cc(C(F)(F)F)cc(C(F)(F)F)c1)c1cc(CCc2ccccc2)ccc1O [compound 24]		
86.4	98.3	COc1ccc(C(C)(C)c2ccccc2)cc1NC(=O)c1cc(Cl)ccc1O [compound 173]		
	95.1	O=C(Nc1cc(Cl)cc(Cl)c1)c1cc2ccccc2cc1O [compound 181]		
14.3	92.3	O=C(Nc1ccc(Cl)nc1)c1cc(Cl)ccc1O [compound 240]		
		O=C(Nc1nc(-c2ccco2)c(-c2ccco2)o1)c1cc(Br)ccc1O [compound 236, 5-Bromo-N-[4,5-bis(furan-2-yl)oxazol-2-yl]-2-hydroxybenzamide]	21.4	56
		O=C(Nc1cc(C(F)(F)F)cc(C(F)(F)F)c1)c1scc(Br)c1O [compound 74, 4-Bromo-3-hydroxy-N-[3,5-bis(trifluoromethyl)phenyl]thiophene-2-carboxamide]	64	97.5
52.4	96.8	COc1ccc(OC)c(NC(=O)c2cc(Cl)ccc2O)c1 [compound 158]		
37.4	87.1	COc1ccc(C(C)(C)C)cc1NC(=O)c1cc(C)ccc1O [compound 149]		
		N#CC(C#N)=Cc1ccc(O)c(C(=O)Nc2cc(C(F)(F)F)cc(C(F)(F)F)c2)c1 [compound 16, N-[3,5-Bis(trifluoromethyl)phenyl]-5-(2,2-dicyanoethen-1-yl)-2-hydroxybenzamide]	42.7	99.4
		COC(=O)c1cc(NC(=O)c2cc(Br)ccc2O)cc(C(=O)OC)c1 [compound 144, 5-bromo-2-hydroxy-N-[3,5-bis(methoxycarbonyl)phenyl]benzamide]		56.4
		CC(C)(C)c1ccc(O)c(C(=O)Nc2cc(C(F)(F)F)cc(C(F)(F)F)c2)c1 [compound 11, N-[3,5-Bis(trifluoromethyl)phenyl]-5-[(1,1-dimethyl)ethyl]-2-hydroxybenzamide]	92.9	98.3
	81.8	O=C(Nc1nc(-c2ccccc2)c(-c2ccccc2)o1)c1cc(Br)ccc1O [compound 235]		
		O=C(Nc1cc(C(F)(F)F)cc(C(F)(F)F)c1)c1ccc(-c2ccccc2)cc1O [compound 262, N-[3,5-Bis(trifluoromethyl)phenyl]-2-hydroxy-4-phenylbenzamide]	> 99.9	

Inhibitory rate against NF-κB activation (%) (Drug concentration at 1 μg/mL)	Inhibitory rate against NF-κB activation (%) (Drug concentration at 10 μg/mL)	SMILES	inhibition at 1 µg/mL (Drug concentration at 1 μg/mL) [%]	inhibition at 10 µg/mL (Drug concentration at 10 μg/mL) [%]
		Cc1nc(NC(=O)c2cc(Br)ccc2O)sc1-c1cccc(C(F)(F)F)c1 [compound 194, 5-Bromo-N-{4-methyl-5-[3-(trifluoromethyl)phenyl]thiazol-2-yl}-2-hydroxy-benzamide]		71.7
93.3	95.6	O=C(Nc1cc(C(F)(F)F)cc(C(F)(F)F)c1)c1ccccc1O [compound 2]		
20.5	88.4	O=C(Nc1ccccc1)Nc1ccc(O)c(C(=O)Nc2cc(C(F)(F)F)cc(C(F)(F)F)c2)c1 [compound 46]		
		O=C(Nc1cc(C(F)(F)F)ccc1C(F)(F)F)c1cc(Cl)ccc1O [compound 81, N-[2,5-bis(trifluoromethyl)phenyl]-5-chloro-2-hydroxybenzamide]	95	96.3
79.7	95.0	O=C(Nc1nc(Cc2ccccc2)c(-c2ccccc2)s1)c1cc(Br)ccc1O [compound 212]		
11.2	90.2	CCN(CC)S(=O)(=O)c1ccc(OC)c(NC(=O)c2cc(Cl)ccc2O)c1 [compound 155]		
		O=C(Nc1nc(-c2ccccc2)c(C(=O)c2ccccc2)s1)c1cc(Br)ccc1O [compound 215, 5-Bromo-N-(5-benzoyl-4-phenylthiazol-2-yl)-2-hydroxybenzamide]	90.7	97.3
88.3	97.1	Cc1ccc(C)c(NC(=O)c2cc(Cl)ccc2O)c1 [compound 153]		
93.8	95.7	O=C(Nc1cc([N+](=O)[O-])ccc1Cl)c1cc(Cl)ccc1O [compound 156]		
		COC(=O)c1ccc(O)c(C(=O)Nc2cc(C(F)(F)F)cc(C(F)(F)F)c2)c1 [compound 35, N-[3,5-bis(trifluoromethyl)phenyl]-4-hydroxyisophthalamic acid methyl ester]	88.2	96.4
96.0	99.5	CCCCc1ccc([N+](=O)[O-])cc1NC(=O)c1cc(Cl)ccc1O [compound 176]		
76.8	96.0	CC(O)c1ccc(O)c(C(=O)Nc2cc(C(F)(F)F)cc(C(F)(F)F)c2)c1 (stereo not drawn) [compound 13]		
46.7	97.8	Cc1ccc(S(=O)(=O)c2ccc(Cl)cc2NC(=O)c2cc(Cl)ccc2O)cc1 [compound 168]		
		O=C(Nc1cc(C(F)(F)F)ccc1Cl)c1cc(Cl)ccc1O [compound 88, 5-chloro-N-[2-chloro-5-(trifluoromethyl)phenyl]-2-hydroxybenzamide]	94.8	97.1
		CCOC(=O)c1sc(NC(=O)c2cc(-c3cccs3)ccc2O)nc1-c1ccccc1 [compound 230, 2-[2-Hydroxy-5-(2-thienyl)benzoyl]amino-4-phenylthiazole-5-carboxylic acid ethyl ester]	40.8	84.8
		Cc1cccc(C(=O)Nc2cc(C(F)(F)F)cc(C(F)(F)F)c2)c1O [compound 58, N-[3,5-bis(trifluoromethyl)phenyl]-2-hydroxy-3-methylbenzamide]	88.2	95

SMILES	Inhibitory rate against NF-κB activation (%) (Drug concentration at 1 μg/mL)	Inhibitory rate against NF-κB activation (%) (Drug concentration at 10 μg/mL)	inhibition at 1 µg/mL (Drug concentration at 1 μg/mL) [%]	inhibition at 10 µg/mL (Drug concentration at 10 μg/mL) [%]
O=C(Nc1cc(Br)cc(C(F)(F)F)c1)c1cc(Cl)ccc1O [compound 104]	97.2	99.2		
CC(C)(C)c1cc(NC(=O)c2cc(Cl)cnc2O)cc(C(C)(C)C)c1 [compound 184]	53.6	63.8		
CC(C)(C)c1cc(C(=O)Nc2cc(C(F)(F)F)cc(C(F)(F)F)c2)c(O)c(C(C)(C)C)c1 [compound 62]	37.0	86.9		
O=C(Nc1cc(C(F)(F)F)ccc1Oc1ccc(Cl)cc1Cl)c1cc(Cl)ccc1O [compound 111]	96.5	99.7		
COc1ccc(O)c(C(=O)Nc2cc(C(F)(F)F)cc(C(F)(F)F)c2)c1 [compound 33]	30.7	97.0		
O=C(Nc1cc(C(F)(F)F)ccc1Cl)c1cc(Br)ccc1O [compound 90]	88.9	94.1		
Cc1ccc(C(C)C)cc1NC(=O)c1cc(Cl)ccc1O [compound 151]	85.8	98.2		
O=C(Nc1cc(C(F)(F)F)cc(C(F)(F)F)c1)c1cc(C(F)(F)F)ccc1O [compound 25]	96.4	99.6		
Cc1ccc(O)c(C(=O)Nc2cc(C(F)(F)F)ccc2Cl)c1 [compound 100]	85.6	95.1		
Cc1ccc(C(=O)Nc2cc(C(F)(F)F)cc(C(F)(F)F)c2)c(O)c1 [compound 53]	93.3	94.5		
O=C(Nc1cc(C(F)(F)F)ccc1Cl)c1cc([N+](=O)[O-])ccc1O [compound 99]	54.3	98.0		
O=C(Nc1cc(C(F)(F)F)cc(C(F)(F)F)c1)c1cc(Br)c(O)cc1O [compound 54]		86.5		
O=C(Nc1cc(C(F)(F)F)cc(C(F)(F)F)c1)c1ccc(O)cc1O [compound 55]	10.8	88.6		
O=C(Nc1cc(C(F)(F)F)cc(C(F)(F)F)c1)c1ccc(F)cc1O [compound 250]	94.2	95.4		
COc1ccc(-n2cccc2)c(NC(=O)c2cc(Cl)ccc2O)c1 [compound 167]	76.4	98.7		
O=C(Nc1nc(-c2ccccc2)c(C(=O)NCCc2ccccc2)s1)c1cc(Br)ccc1O [compound 223]	33.3	60.4		
